BindingDB's records for doi:10.1021/acs.jmedchem.0c00961 (Rheinische Friedrich-Wilhelms-University Bonn, 2020)

Legend:
[1] = Inhibition of human ABCG2-mediated multidrug resistance in MDCK2 cells assessed as potentiation of SN-38-induced cytotoxicity by measuring half maximal reversal concentration after 72 hrs by MTT assay
[2] = Inhibition of human ABCC1-mediated multidrug resistance in MDCK2 cells assessed as potentiation of doxorubicin-induced cytotoxicity by measuring half maximal reversal concentration after 72 hrs by MTT assay
[3] = Inhibition of human ABCB1-mediated multidrug resistance in human A2780/ADR cells assessed as potentiation of doxorubicin-induced cytotoxicity by measuring half maximal reversal concentration after 72 hrs by MTT assay

Row | Structure (SMILES) | EC50 [1] [nM] | EC50 [2] [nM] | EC50 [3] [nM]
1 | Cc1cc(Nc2ccc([N+](=O)[O-])cc2)nc(-c2ccccc2)n1 | 16 |  | 
2 | Cc1cc(Nc2ccc(F)c(C#N)c2)nc(-c2ccccc2)n1 | 21 |  | 
3 | Cc1cc(Nc2ccc(C#N)c(C)c2)nc(-c2ccccc2)n1 | 11 |  | 
4 | Cc1cc(Nc2ccc3ncccc3c2)nc(-c2ccccc2)n1 | 16 | 5150 | 8410
5 | Cc1cc(Nc2ccc(C#N)c(C(F)(F)F)c2)nc(-c2ccccc2)n1 | 15 |  | 
6 | Cc1cc(Nc2ccc(C#N)c(Br)c2)nc(-c2ccccc2)n1 | 15 |  | 
